Laboratory results as given in ChEMBL document CHEMBL1201862, “PubChem BioAssay data set” (2004).
The source made the active and inactive calls.

Key:
[1] = molecular target: 1-phosphatidylinositol 4,5-bisphosphate phosphodiesterase beta-3 (Homo sapiens, UniProt Q01970); experiment: Fluorescence-based biochemical high throughput dose response assay to identify inhibitors of phospholipase C isozymes (PLC-B3).
[2] = molecular target: 1-phosphatidylinositol 4,5-bisphosphate phosphodiesterase gamma-1 (Homo sapiens, UniProt P19174); experiment: Counterscreen for inhibitors of phospholipase C isozymes (PLC-B3): Fluorescence-based biochemical high throughput dose response assay to identify inhibitors of phospholipase C isozymes (PLC-gamma1).
Sequence of 1-phosphatidylinositol 4,5-bisphosphate phosphodiesterase gamma-1 (P19174 whole entry): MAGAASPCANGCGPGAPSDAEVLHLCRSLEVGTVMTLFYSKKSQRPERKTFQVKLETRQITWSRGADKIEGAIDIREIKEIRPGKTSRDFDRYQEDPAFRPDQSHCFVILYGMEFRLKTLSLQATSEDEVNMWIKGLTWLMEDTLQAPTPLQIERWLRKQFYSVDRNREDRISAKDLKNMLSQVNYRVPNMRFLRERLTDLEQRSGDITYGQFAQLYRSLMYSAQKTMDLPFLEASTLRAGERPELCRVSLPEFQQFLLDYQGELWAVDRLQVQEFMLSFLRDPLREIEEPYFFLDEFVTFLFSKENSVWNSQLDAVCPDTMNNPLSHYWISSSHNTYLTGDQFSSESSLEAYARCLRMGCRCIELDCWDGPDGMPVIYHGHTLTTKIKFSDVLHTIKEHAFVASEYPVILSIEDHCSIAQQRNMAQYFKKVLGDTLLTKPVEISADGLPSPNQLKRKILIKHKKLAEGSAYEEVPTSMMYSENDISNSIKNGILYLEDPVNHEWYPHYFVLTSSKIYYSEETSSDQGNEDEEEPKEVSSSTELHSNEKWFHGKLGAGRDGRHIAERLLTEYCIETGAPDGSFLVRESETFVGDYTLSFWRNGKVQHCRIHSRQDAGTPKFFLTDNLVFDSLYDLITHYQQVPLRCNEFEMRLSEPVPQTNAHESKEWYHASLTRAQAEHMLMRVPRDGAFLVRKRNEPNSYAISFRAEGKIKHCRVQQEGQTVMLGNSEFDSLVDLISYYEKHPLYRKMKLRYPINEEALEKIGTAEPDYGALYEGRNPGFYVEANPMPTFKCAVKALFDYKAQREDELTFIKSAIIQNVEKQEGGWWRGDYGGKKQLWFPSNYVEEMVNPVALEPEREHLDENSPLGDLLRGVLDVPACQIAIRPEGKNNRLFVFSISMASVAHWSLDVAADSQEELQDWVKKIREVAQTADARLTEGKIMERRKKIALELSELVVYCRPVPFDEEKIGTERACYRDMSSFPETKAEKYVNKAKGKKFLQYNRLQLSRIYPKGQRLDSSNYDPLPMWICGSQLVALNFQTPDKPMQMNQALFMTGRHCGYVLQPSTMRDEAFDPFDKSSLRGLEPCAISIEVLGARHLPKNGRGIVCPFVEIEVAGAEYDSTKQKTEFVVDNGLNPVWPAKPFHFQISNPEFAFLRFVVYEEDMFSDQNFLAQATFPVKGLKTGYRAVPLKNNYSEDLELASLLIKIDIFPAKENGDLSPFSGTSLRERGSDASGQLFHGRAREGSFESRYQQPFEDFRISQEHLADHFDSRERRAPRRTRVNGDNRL

Kallikrein-7 = Kallikrein-7 (Homo sapiens, UniProt P49862); experiment: Fluorescence Intensity-based biochemical primary high throughput dose response assay to identify activators of kallikrein-7 (K7) zymogen.
Sequence of Kallikrein-7 (P49862 whole entry): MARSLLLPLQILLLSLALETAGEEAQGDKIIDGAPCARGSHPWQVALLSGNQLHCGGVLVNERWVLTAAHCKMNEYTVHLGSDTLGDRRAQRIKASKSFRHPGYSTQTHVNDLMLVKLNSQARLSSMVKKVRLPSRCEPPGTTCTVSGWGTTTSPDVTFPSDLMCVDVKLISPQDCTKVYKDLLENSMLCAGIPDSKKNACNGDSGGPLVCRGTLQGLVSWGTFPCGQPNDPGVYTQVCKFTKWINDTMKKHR

[3] = molecular target: T1, Methionyl-tRNA synthetase, putative (Trypanosoma brucei brucei, UniProt Q38C91); format: functional, Trypanosoma brucei brucei strain 927/4 GUTat10.1
T1 sequence (Q38C91 whole entry): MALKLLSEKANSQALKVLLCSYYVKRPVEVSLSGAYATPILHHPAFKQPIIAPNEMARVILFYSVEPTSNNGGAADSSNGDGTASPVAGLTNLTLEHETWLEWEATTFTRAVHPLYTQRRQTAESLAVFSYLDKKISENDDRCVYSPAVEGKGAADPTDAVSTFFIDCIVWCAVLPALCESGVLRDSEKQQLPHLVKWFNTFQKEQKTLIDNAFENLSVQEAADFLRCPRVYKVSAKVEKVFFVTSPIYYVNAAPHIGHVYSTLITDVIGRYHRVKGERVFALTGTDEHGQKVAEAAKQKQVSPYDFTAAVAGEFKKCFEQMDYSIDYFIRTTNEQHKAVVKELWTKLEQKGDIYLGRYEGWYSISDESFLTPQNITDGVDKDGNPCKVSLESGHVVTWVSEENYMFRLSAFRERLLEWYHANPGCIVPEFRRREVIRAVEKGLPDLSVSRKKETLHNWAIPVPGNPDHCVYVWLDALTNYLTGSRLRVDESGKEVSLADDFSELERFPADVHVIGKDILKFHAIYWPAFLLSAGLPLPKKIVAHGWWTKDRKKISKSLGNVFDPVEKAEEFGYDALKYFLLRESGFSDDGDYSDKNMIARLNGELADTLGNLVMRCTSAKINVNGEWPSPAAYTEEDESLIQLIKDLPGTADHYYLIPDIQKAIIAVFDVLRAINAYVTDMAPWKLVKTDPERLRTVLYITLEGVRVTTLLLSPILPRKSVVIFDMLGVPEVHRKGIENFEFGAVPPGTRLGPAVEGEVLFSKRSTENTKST

[4] = Late stage counterscreen for inhibitors of Trypanosoma brucei methionyl tRNA synthetase (MetRS): Luminescence-based cell-based high throughput dose response assay to identify compounds that are cytotoxic to Jurkat human T lymphocyte cells.; format: functional
[5] = molecular target: T1, Methionyl-tRNA synthetase, putative; format: functional, Trypanosoma brucei brucei strain 927/4 GUTat10.1; remark: listed apart in the source
[6] = molecular target: T2, Heat shock factor protein 1 (Mus musculus, UniProt P38532); experiment: HSF1 potentiators in luciferase reporter cells, confirmation, cell-based, NIH3T3, luminescence, dose retest (AID 435004); format: functional;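 further: stress induced by proteasome inhibitor MG132 added 30 min after compound; luciferase reporter driven by HSF1 response element in NIH3T3 cells; actives raise luminescence as potentiators of the MG132 stress response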
T2 sequence (P38532 whole entry): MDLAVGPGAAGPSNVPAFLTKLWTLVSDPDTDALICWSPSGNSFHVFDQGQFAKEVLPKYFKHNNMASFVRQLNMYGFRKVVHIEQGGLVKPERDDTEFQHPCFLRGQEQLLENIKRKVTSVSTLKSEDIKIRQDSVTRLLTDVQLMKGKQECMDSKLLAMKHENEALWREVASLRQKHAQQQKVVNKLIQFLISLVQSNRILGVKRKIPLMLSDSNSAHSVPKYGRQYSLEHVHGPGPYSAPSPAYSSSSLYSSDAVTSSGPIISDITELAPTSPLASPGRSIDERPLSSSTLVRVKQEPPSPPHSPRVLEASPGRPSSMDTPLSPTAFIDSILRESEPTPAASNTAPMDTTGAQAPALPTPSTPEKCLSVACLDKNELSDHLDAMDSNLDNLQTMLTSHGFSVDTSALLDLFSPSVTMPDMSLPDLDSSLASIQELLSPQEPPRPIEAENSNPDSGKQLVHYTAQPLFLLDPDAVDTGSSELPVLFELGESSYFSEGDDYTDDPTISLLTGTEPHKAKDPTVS

[7] = Counterscreen for inhibitors of Trypanosoma brucei methionyl tRNA synthetase (MetRS): Luminescence-based cell-based high throughput dose response assay to identify compounds that are cytotoxic to Jurkat human T lymphocyte cells.; format: functional
Beta-lactamase [8] = molecular target: T3, Beta-lactamase (Pseudomonas aeruginosa, UniProt Q79MP6); experiment: IMP-1 metallo-beta-lactamase inhibitors, dose response, selectivity assay for VIM-2 inhibitor project, biochemical, epi-absorbance (AID 1920)
T3 sequence (Q79MP6 whole entry): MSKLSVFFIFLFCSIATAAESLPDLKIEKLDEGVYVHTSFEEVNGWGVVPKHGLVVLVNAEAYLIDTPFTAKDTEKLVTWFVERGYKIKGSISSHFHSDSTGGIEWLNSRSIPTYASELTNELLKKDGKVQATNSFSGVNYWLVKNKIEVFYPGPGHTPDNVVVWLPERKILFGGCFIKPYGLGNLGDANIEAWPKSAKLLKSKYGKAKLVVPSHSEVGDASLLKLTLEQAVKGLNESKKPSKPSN

Beta-lactamase [9] = molecular target: Beta-lactamase (Salmonella choleraesuis (strain SC-B67), UniProt Q5J463); experiment: Epi-absorbance-based counterscreen for selective VIM-2 inhibitors: dose response biochemical high throughput screening assay to identify inhibitors of TEM-1 serine-beta-lactamase.
Sequence of Beta-lactamase (Salmonella choleraesuis (strain SC-B67), UniProt Q5J463) (Q5J463 whole entry): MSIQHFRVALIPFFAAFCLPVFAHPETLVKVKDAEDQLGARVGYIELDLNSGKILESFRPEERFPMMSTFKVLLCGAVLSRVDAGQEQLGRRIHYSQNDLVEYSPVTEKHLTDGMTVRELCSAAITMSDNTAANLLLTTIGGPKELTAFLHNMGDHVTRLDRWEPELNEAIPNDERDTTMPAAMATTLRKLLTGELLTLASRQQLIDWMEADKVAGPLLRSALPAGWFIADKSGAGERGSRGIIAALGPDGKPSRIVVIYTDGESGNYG

Beta-lactamase [10] = molecular target: T3, Beta-lactamase; experiment: […] counterscreen for selective VIM-2 inhibitors: dose response biochemical high throughput screening assay to identify inhibitors of IMP-1 metallo-beta-lactamase.
[11] = molecular target: Bifunctional protein GlmU (Mycobacterium tuberculosis, UniProt P9WMN3); experiment: Inhibitors of Mycobacterial Glucosamine-1-phosphate acetyl transferase (GlmU). Secondary screen.; set-up: species or system Mycobacterium tuberculosis H37Rv
Sequence of Bifunctional protein GlmU (P9WMN3 whole entry, the tested form may be a part): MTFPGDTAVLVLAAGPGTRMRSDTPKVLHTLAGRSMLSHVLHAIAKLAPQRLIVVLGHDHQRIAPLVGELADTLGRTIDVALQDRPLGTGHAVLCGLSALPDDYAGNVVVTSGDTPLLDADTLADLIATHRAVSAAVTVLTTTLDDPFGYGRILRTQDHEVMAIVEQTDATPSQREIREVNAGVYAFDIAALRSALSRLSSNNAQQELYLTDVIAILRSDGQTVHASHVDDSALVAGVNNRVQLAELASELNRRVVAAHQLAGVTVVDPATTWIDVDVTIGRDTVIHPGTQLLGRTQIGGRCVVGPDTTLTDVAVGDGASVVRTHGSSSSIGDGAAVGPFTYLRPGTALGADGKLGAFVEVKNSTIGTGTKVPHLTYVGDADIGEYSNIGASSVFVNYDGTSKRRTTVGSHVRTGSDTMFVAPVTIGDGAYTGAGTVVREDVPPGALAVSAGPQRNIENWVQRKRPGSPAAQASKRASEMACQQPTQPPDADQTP

[12] = molecular target: T4, Carboxy-terminal domain RNA polymerase II polypeptide A small phosphatase 1 (Homo sapiens, UniProt Q9GZU7); experiment: inhibitors of CTDSP1, concentration-response testing, biochemical assay, absorbance-based, actives from ultra-high-throughput screening (AID 540297); format: functional
T4 sequence (Q9GZU7 whole entry): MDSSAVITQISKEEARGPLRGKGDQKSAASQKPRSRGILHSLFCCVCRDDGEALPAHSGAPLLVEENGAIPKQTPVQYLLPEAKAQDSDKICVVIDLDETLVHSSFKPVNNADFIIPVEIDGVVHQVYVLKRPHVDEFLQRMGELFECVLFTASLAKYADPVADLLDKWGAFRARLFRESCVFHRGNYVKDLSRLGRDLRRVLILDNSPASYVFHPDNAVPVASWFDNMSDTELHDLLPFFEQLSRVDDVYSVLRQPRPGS

[13] = ADAM10 protease inhibitors, dose response, selectivity assay for ADAM17 exosite inhibitor project, biochemical, FRET peptide substrate, recombinant human ADAM10 (AID 743259);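 further: ADAM10 enzyme cleaving a FRET peptide substrate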
[14] = molecular target: Tyrosine-protein phosphatase non-receptor type 11 (Homo sapiens, UniProt Q06124); experiment: SHP2 phosphatase inhibition, dose response, selectivity assay for STEP inhibitor project, biochemical (AID 602367); format: functional; conditions: read-out: IC50_Mean
Sequence of Tyrosine-protein phosphatase non-receptor type 11 (Q06124 whole entry): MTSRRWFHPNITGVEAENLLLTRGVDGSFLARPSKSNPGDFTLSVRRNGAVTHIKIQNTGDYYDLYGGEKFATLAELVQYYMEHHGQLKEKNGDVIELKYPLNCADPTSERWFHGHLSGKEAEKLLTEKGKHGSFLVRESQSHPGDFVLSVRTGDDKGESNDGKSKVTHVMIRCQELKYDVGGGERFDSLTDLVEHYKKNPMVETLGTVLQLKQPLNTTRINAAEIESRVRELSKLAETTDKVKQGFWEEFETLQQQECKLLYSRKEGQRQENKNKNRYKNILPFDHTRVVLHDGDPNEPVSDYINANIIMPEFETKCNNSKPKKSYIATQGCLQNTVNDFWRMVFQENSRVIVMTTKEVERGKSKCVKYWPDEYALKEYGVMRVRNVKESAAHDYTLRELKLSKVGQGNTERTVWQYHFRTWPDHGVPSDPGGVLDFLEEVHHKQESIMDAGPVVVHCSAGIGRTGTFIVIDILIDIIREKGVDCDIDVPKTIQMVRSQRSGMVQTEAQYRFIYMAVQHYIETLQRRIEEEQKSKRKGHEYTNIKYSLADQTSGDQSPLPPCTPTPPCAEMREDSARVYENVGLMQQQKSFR

[15] = molecular target: Tyrosine-protein phosphatase non-receptor type 5 (Homo sapiens, UniProt P54829); experiment: STEP phosphatase inhibitors, confirmation, biochemical, fluorescence intensity, uHTS hits (AID 602372); format: functional; conditions: read-out: IC50_Mean
Sequence of Tyrosine-protein phosphatase non-receptor type 5 (P54829 whole entry): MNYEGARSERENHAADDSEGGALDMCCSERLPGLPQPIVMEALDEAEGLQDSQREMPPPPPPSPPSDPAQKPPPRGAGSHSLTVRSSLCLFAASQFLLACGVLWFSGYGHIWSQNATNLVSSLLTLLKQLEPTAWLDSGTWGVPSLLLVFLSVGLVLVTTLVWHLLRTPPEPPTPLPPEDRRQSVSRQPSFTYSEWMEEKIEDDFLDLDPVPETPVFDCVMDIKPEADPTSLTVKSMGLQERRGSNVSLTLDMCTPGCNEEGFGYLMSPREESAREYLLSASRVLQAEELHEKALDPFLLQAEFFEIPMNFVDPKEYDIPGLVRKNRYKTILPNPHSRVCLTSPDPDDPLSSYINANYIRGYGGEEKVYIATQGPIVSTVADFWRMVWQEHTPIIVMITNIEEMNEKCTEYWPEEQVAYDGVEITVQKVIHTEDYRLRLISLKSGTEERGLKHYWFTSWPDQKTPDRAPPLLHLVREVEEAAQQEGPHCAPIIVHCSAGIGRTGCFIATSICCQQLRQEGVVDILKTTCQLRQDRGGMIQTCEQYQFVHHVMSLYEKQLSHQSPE

[16] = molecular target: Dual specificity protein phosphatase 3 (Homo sapiens, UniProt P51452); experiment: VHR phosphatase inhibition, dose response, selectivity assay for STEP inhibitor project, biochemical (AID 602374); format: functional; conditions: read-out: IC50_Mean
[17] = molecular target: Disintegrin and metalloproteinase domain-containing protein 17 (Homo sapiens, UniProt P78536); experiment: exosite inhibitors of ADAM17, dose response, biochemical (AID 743260)
Sequence of Disintegrin and metalloproteinase domain-containing protein 17 (P78536 whole entry, the tested form may be a part): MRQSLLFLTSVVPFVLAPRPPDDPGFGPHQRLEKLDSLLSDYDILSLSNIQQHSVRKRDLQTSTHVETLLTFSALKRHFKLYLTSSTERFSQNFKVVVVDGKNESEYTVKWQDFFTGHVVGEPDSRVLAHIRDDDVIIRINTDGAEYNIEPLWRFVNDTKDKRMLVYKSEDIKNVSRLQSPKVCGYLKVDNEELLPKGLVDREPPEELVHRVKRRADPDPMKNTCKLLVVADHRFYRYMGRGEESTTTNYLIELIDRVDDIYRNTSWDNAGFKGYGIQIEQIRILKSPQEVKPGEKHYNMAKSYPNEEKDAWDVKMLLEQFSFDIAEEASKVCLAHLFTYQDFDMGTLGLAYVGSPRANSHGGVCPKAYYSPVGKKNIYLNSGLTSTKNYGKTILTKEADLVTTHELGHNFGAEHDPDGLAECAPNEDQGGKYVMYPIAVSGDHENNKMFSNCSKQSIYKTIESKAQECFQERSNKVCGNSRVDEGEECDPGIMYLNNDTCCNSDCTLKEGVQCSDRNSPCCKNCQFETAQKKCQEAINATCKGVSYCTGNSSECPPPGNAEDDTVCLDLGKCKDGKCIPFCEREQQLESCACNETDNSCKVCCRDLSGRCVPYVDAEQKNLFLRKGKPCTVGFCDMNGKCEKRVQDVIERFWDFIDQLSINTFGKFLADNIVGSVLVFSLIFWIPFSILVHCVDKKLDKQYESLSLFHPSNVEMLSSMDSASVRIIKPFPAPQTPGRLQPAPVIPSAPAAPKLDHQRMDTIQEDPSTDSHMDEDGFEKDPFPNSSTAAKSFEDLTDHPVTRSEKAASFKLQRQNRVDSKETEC

[18] = P. falciparum late gametocyte killing, dose response, luminescence (AID 1117278); format: functional, cell-based;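 further: gametocytes exposed to compound for 24 hours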
[19] = Jurkat T cell cytotoxicity, dose response, cytotoxicity control for P. falciparum gametocyte viability project, luminescence (AID 1117277); format: functional, cell-based;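 further: potency reflects loss of cellular ATP meaning fewer viable cells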
fMet-Leu-Phe receptor = fMet-Leu-Phe receptor (Homo sapiens, UniProt P21462); experiment: FPR ligands, dose response (AID 519); format: functional
Sequence of fMet-Leu-Phe receptor (P21462 whole entry): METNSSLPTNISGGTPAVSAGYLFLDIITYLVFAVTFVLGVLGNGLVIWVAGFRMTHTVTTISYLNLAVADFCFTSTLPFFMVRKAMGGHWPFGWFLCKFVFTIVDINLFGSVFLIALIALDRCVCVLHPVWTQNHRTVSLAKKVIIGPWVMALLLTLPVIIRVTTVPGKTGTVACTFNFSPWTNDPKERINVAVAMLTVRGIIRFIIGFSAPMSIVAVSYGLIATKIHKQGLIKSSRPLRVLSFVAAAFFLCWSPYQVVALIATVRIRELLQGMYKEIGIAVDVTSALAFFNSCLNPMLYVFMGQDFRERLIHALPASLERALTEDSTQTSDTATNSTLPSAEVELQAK

CC(C)(C)c1cc(C(=O)NNC(=O)Nc2ccccc2)n(Cc2ccccc2)n1
IC50 [1]: > 122 µM (inactive) | IC50 [2]: > 122 µM (inactive)

O=C(O)CCN1c2cccc3cccc(c23)S1(=O)=O
EC50 (Kallikrein-7): > 7.72 µM (active)

O=C(NCCc1nc2ccccc2[nH]1)c1ccc(Cl)c([N+](=O)[O-])c1
IC50 [3]: 0.17 µM (active) | IC50 [4]: > 83.3 µM (inactive) | IC50 [5]: 0.221 µM (active) | EC50 [6]: > 260 µM (inactive) | IC50 [7]: 44.4 µM (inactive)

Cc1cc(=O)oc2c3c(cc(OCC(=O)N[C@@H](Cc4ccccc4)C(=O)O)c12)OC(C)(C)CC3
IC50 (Beta-lactamase [8]): > 59.6 µM (inactive) | EC50 (Kallikrein-7): 49 µM (inactive) | IC50 (Beta-lactamase [9]): > 59.6 µM (inactive) | IC50 (Beta-lactamase [10]): > 59.6 µM (inactive)

CC1C=CC(C)C(C(=O)O)C1C(=O)O (configuration not stated)
IC50 [11]: 144 µM (active) | IC50 [12]: 4.36 µM (active)

Brc1c[nH]c2nc(SCc3nc4ccccc4[nH]3)nc-2c1
IC50 [3]: 4.23 µM (active) | IC50 [4]: > 83.3 µM (inactive) | IC50 [5]: 7.89 µM (active) | IC50 [7]: 83.3 µM (inactive)

CCN(c1ccccc1)S(=O)(=O)c1cc(C(=O)OC(C)C(=O)Nc2ccc3c(c2)OCCO3)ccc1C (configuration not stated)
IC50 [13]: > 7.72 µM (active) | IC50 [14]: 2.47 µM (active) | IC50 [15]: > 80 µM (inactive) | IC50 [16]: 5.05 µM (active) | IC50 [17]: > 69.5 µM (inactive) | IC50 [12]: 4.38 µM (active)

COc1ccc(-n2c(-c3ccco3)nc3c(cnn3-c3ccccc3C)c2=O)cc1
IC50 [18]: > 109 µM (inactive) | IC50 [19]: > 83.3 µM (inactive)

Cc1ccc(C(=O)C2=C(O)C(=O)N(CCN3CCOCC3)C2c2cccnc2)cc1 (configuration not stated)
Ki (fMet-Leu-Phe receptor): > 66.7 µM (inactive)
